Five molecules from patent publication US20060223819A1, “Quinoline Derivatives as NK-3 Antagonists” (GlaxoSmithKline S.P.A. & Laboratoire, priority 2000, published 2006) can be followed below.

`CCOC(=O)C1CCCN(/C(=C\[N+](=O)[O-])N2CCN(Cc3c(-c4ccccc4)nc4ccccc4c3C(=O)N[C@@H](C)c3ccccc3)CC2)C1` (stereo partly drawn) [Example 15, 1-(2-Nitro-1-{4-[2-phenyl-4-((S)-1-phenyl-ethylcarbamoyl)-quinolin-3-ylmethyl]-piperazin-1-yl}-vinyl)-piperidine-3-carboxylic acid ethyl ester] registered a melting point of 120 to 121 °C. Regarding `C[C@H](NC(=O)c1c(CN2CCNC(=O)C2)c(-c2ccccc2F)nc2ccccc12)C1CCCCC1` [Example 46, 2-(2-Fluorophenyl)-3-(3-oxopiperazin-1-ylmethyl)-quinoline-4-carboxylic acid ((S)-1-cyclohexyl-ethyl)-amide], the melting point was 167 to 169 °C. The figure for `C[C@H](NC(=O)c1c(CN2CCNC(=O)C2)c(-c2ccccc2)nc2cc(F)ccc12)C1CCCCC1` [Example 35, 7-Fluoro-3-(3-oxopiperazin-1-ylmethyl)-2-phenylquinoline-4-carboxylic acid ((S)-1-cyclohexyl-ethyl)-amide] is 163 to 165 °C. For `C[C@H](NC(=O)c1c(CN2CCNC(=O)C2)c(-c2ccc(C(F)(F)F)cc2)nc2ccccc12)C1CCCCC1` [Example 45, 3-(3-Oxopiperazin-1-ylmethyl)-2-(4-trifluoromethylphenyl)quinoline-4-carboxylic acid ((S)-1-cyclohexylethyl)-amide] the value was 214 to 217 °C; for `CC[C@H](NC(=O)c1c(CN2CCNC(=O)C2)c(-c2ccccc2)nc2ccccc12)c1ccccc1` [Example 40, 3-(3-Oxo-piperazin-1-ylmethyl)-2-phenyl-quinoline-4-carboxylic acid((S)-1-phenyl-propyl)-amide], 160 °C.

Usually melting point stands for the temperature of the solid-liquid transition.
